Reference: patent US20170095432A1, “TREPROSTINIL FORMULATIONS” (United Therapeutics Corporation, priority 2014, published 2017)

Legend:
Format in all cases: physicochemical
[1] = Complexation of treprostinil with cholestyramine ion-exchange resins (PUROLITE, DUOLITE); unbound drug assayed by UV at 270 nm
Method: (§1) A UV absorbance measurement was conducted with an approximate 0.1 mg/mL treprostinil diolamine solution with a Fluostar Omega BMG Labtech UV spectrophotometer from 220 nm to 350 nm to determine the λmax. Two standard curves were established with known concentrations of treprostinil at 228 nm and 270 nm. The time to achieve equilibrium between bound and unbound treprostinil to the IER was determined. One gram of resin was added to 100 mL of 10 mg/mL treprostinil solution. The suspension was stirred for four hours and 1 -mL samples were taken at 30, 60, 90, 120, 180, and 240 minutes. Each sample was filtered through a 0.45-μm PTFE filter, and the resulting solution was assayed by UV spectrophotometry for treprostinil concentration. Complexation experiments were conducted with known concentrations of treprostinil and one gram of resin at ratios of 1:0.5, 1:1, 1:2, and 1:4, resin:treprostinil (w/w). Two resins, PUROLITE™ and DUOLITE™, were evaluated separately. The amount of treprostinil complexed per gram of resin was calculated based on the difference between the initial and final treprostinil concentration. The percent loading efficiency was calculated based on the equation: (1-[unbound treprostinil]/[initial treprostinil]) * 100. Photographs were taken for each resin before and after complexation with treprostinil using a Leica DM IL LED light microscope and Leica DMC2900 microscope camera.
FIGS. 1-6 present the results of experiments. […] FIGS. 2A and 2B show calibration curves for determining a concentration of unbound treprostinil (diethanolamine) based on treprostinil absorbance at 228 nm (2A) and 270 nm (2B). The 270 nm curve was used to calculate all the concentrations in the complexation experiments.

[2] = Binding of treprostinil diethanolamine to the 0.45-μm PTFE filters used in the assay
Method: as §1, with “Photographs were taken for each resin before and after complexation with treprostinil using a Leica DM IL LED light microscope and Leica DMC2900 microscope camera.” left out
(§2) Treprostinil diethanolamine was determined to be stable for 14 days at both ambient and refrigerated environments.

[3] = Stability of treprostinil diethanolamine at ambient and refrigerated environments; conditions: 14 days
Method: as §2

SMILES: CCCCC[C@H](O)CC[C@@H]1[C@H]2Cc3cccc(OCC(=O)O)c3C[C@H]2C[C@H]1O.OCCNCCO [Treprostinil diethanolamine]
- loading efficiency (drug bound to the resin) ([1]; lower concentrations of treprostinil diethanolamine): almost all drug was bound to the resin
- binding effect with PTFE filters [2]: no binding effect
- stability ([3]; ambient environment): stable
- stability ([3]; refrigerated environment): stable

SMILES: CCCCC[C@H](O)CC[C@@H]1[C@H]2Cc3cccc(OCC(=O)O)c3C[C@H]2C[C@H]1O [treprostinil]
- maximum amount of treprostinil bound ([1]; plateau with increasing concentration of treprostinil diethanolamine, resin:treprostinil ratios 1:0.5 to 1:4 (w/w)): 1.6 g/g resin
- time to equilibrium between bound and unbound treprostinil to the resins ([1]; stirring, 1 g resin in 100 mL of 10 mg/mL treprostinil solution): After one hour of stirring
